The record followed here is patent publication US8592603B2, “Synthesis of 2-(4-aminophenyl) benzothiazole derivatives and use thereof” (Kaohsiung Medical University, priority 2011, dated 2013).

Data set [1] has as its system BCC cells. Nature of the data set: Sub-G1 region analysis (PI, flow cytometry). As to conditions: 4 μM for 4 hours, 1 J/cm^2 UVA, 24 h after irradiation. The data set is classed as cell-based, human. How it is done:
BCC cells were treated with compounds at 4 μM and 1 J/cm^2 UVA. Twenty-four hours after irradiation, cells were harvested by trypsinization and centrifugation. Cell pellets were resuspended in 50% cold ethanol and fixed at −20° C. After fixation, cells were washed once with cold PBS and incubated in 0.5 mL of PBS containing 100 μg/mL RNase A for 20 min at 37° C. Cells were harvested by centrifugation at 400 g for 5 min, and 250 μL of PBS containing 50 μg/mL propidium iodide (PI) was added to the pellet. Thirty minutes later, the DNA contents of 10,000 events were measured by FACSscan flow cytometer (Elite ESP, Beckman Coulter, Brea, Calif.). Histograms were analyzed using Windows Multiple Document Interface software (WinMDI). Cells with DNA content less than that in untreated cells in G0/G1 were considered apoptotic. To investigate the effects of compounds 6 on cell cycle progression of BCC cells, the DNA content of cell nuclei was measured by flow cytometric analysis. […] BCC cells were treated with 4 μM agents for 4 hours followed by 1 J/cm^2 UVA irradiation. Twenty-four hours after irradiation, the PI reagent was used. Approximately 10000 cells from each group were analyzed with the FACScan flow cytometer. The apoptotic effects in 2.2% (control), 6.5% (6a), 13.4% (6b), 29.2% (6c), 24.4% (6d), 6.5% (6e), 35.4% (6f), 13.6% (6g), 13.8% (6h), 14.8% (6i) and 6.4% (6j) of sub-G1 DNA peak were obtained (% represented the percentage of cell counts).

The subject of data set [2] is human dermal fibroblast cells. Nature of the data set: Morphology observation and annexin V/PI binding assay on normal cells. The data set is classed as cell-based. As to conditions: 4 μM for 4 h, 1 J/cm2 UVA (FIG. 4C). How it is done: (A) The increased enzymatic activities of the caspase-3 in apoptotic were determined by colorimetric reaction. The cleavage of peptide by the caspase releases the chromophore pNA (p-nitroaniline), which can be quantified spectrophotometrically at a wavelength of 405 nm. (B) Dot plots for BCC cells treated with various concentrations of 6f-UVA and then stained with PI and an annexin V-FITC conjugate specifically detecting the exposure of PS residues at the cell surface. (C) Morphological observation and annexin V/PI double stain were used for the detection of fibroblasts apoptosis. Approximately 10000 cells from each group were analyzed by flow cytometry. Data shown are of a representative experiment repeated three times with similar results. ** p<0.01 as compared with the control.
To assess the simultaneous observation of early phase of apoptotic and necrotic features, BCC cells were treated with various concentrations (0-4 μM) of Formula 6f for 4 h before irradiation. Twenty-four hours after irradiation, cells were harvested by trypsinization and centrifugation and measured by cytometry by adding annexin V-FITC to […] per sample according to the manufacturer's specifications (Bender MedSystems, Vienna, Austria). Simultaneously, the cells were stained with PI. Flow cytometry data were analyzed by the WinMDI software.
BCC or fibroblasts (5×10^5 cells/well) seeded on 6 well plate. […]

Data set [3] has as its system BCC cells. Kind of data set: ATP content bioluminescence assay. It is filed as cell-based, human. How it is done: (A) 6f-UVA induced ROS generation in BCC cells. Histogram of fluorescence vs cell count in BCC cells with various concentrations of 6f-UVA and stained with DCFH-DA. As a control, ROS was measured in the presence of catalase, a H2O2 scavenger. (B) The ΔΨmt of BCC cells after exposure to 6f-UVA. Cells were treated with 0, 2, and 4 μM Formula 6f for 4 h followed by 1 J/cm2 UVA irradiation, then stained with DiOC6 and analyzed immediately by flow cytometry as described under Materials and Methods. The number in M1 indicates the percentage of cells with reduced ΔΨmt. Approximately 10000 cells from each group were analyzed by flow cytometry. (C) Relative ATP levels were calculated as the percentage of the 0 μM level. Similar results were obtained in three independent experiments. *p<0.05, ** p<0.01 as compared with the control.
The amount of intracellular ATP was determined by bioluminescent assay based on the measurement of the light output of the luciferin-luciferase reaction. After treatment with various concentrations of 6f-UVA, total cell extracts from cultured BCC cells were obtained immediately by lysing solution. After centrifugation to remove cell debris, the supernatants were collected for ATP measurement. The total amount of intracellular ATP was determined according to the protocol provided with the ATPLite assay kit (Perkin Elmer, Boston, Mass.).

A further data set relates to ERK. Kind of data set: Western blot analysis of MAPK phosphorylation: ERK. The data set is classed as cell-based, human. As to conditions: BCC cells, 6f-UVA at 4 μM, compared with untreated control (FIG. 6A). How it is done: (§1) (A) After exposure to different concentration of 6f-UVA, cell lysates were collected and immunoblotted with specific antibodies as indicated. For the internal control, the same amounts of protein extract were also probed with antibody against actin. (B) As a control, the expression level of p-ERK was determined in the presence of oligomycin (25 μM) and ATP (1×10^−4M)
Total cell extracts from cultured BCC cells were obtained by lysing the cells in ice-cold RIPA buffer (1×PBS, 1% NP-40, 0.5% sodium deoxycholate, 0.1% SDS) containing 100 μg/mL PMSF, 2 μg/mL aprotinin, 2 μg/mL leupeptin and 100 μg/mL NaF. After centrifugation at 14,000 g for 30 min, protein in the supernatants was quantified by Bradford method (Bio-Rad). Forty micrograms of protein per lane was applied in 10% SDS-poly-acrylamide gel. After electrophoresis, protein was transferred from the gel to polyvinylidene difluoride (PVDF) membrane (Millipore, Bedford, Mass.). The membranes were blocked at room temperature for 1 h in PBS+0.1% Tween 20 (PBS-T) containing 5% skim milk. After being briefly rinsed with PBS-T, the blots were probed with respective primary antibodies at room temperature for 2 h or at 4° C. overnight. Rabbit polyclonal antibodies against JNK (46 kDa), p38 (38 kDa), ERK (42, 44 kDa), and mouse monoclonal antibody against p-JNK, p-p38, p-ERK were purchased from Santa Cruz Biotechnology (Santa Cruz, Calif.). Mouse monoclonal antibody against actin was purchased from Chemicon Int. Inc. (Temecula, Calif.). For the blocking test, 25 μM oligomycin (Sigma, a mitochondria-specific F0F1 ATP synthase inhibitor) or 1×10^−4M ATP (Sigma) was added to the media 30 min before treated with 6f-UVA, respectively. The membrane was incubated with the corresponding horseradish peroxidase-labeled secondary antibody (Santa Cruz Biotechnology) at room temperature for 1 h. […] The relative amounts of specific proteins were quantified by densitometry scanning of X-ray films and analyzed by Eagle Eye Image System (Stratagene, La Jolla, Calif.)
(In general: A western blot detects proteins with antibodies after separation by electrophoresis.)

Another data set relates to JNK MAPK. Nature of the data set: Western blot analysis of MAPK phosphorylation: JNK. The data set is classed as cell-based, human. As to conditions: BCC cells, 6f-UVA (FIG. 6A). How it is done: as §1
Total cell extracts from cultured BCC cells were obtained by lysing the cells in ice-cold RIPA buffer (1×PBS, 1% NP-40, 0.5% sodium deoxycholate, 0.1% SDS) containing 100 μg/mL PMSF, 2 μg/mL aprotinin, 2 μg/mL leupeptin and 100 μg/mL NaF. After centrifugation at 14,000 g for 30 min, protein in the supernatants was quantified by Bradford method (Bio-Rad). Forty micrograms of protein per lane was applied in 10% SDS-poly-acrylamide gel. After electrophoresis, protein was transferred from the gel to polyvinylidene difluoride (PVDF) membrane (Millipore, Bedford, Mass.). The membranes were blocked at room temperature for 1 h in PBS+0.1% Tween 20 (PBS-T) containing 5% skim milk. After being briefly rinsed with PBS-T, the blots were probed with respective primary antibodies at room temperature for 2 h or at 4° C. overnight. […] The relative amounts of specific proteins were quantified by densitometry scanning of X-ray films and analyzed by Eagle Eye Image System (Stratagene, La Jolla, Calif.)

Take `Nc1ccc(-c2nc3ccc(C(F)(F)F)cc3s2)cc1` [Formula 6f, 2-(4-Aminophenyl)-6-trifluoromethylbenzothiazole]: in the data set on BCC cells [1], the “sub-G1 DNA peak (apoptotic effects, percentage of cell counts)” value worked out at 35.4%. In addition, in data set [2], the “apoptotic activity on normal cells” value is on record as “no significant apoptotic effect”. The “decrease of intracellular ATP content compared with untreated control” value is “about 30%” in the data set on BCC cells [3] (2 μM 6f-UVA) and approximately 45% in the data set with BCC cells [3] (4 μM 6f-UVA). In addition, the “phosphorylation of ERK (p-ERK)” value in the data set with ERK is “increased”. Also, the “phosphorylation of JNK MAPK” value with JNK MAPK is “did not stimulate the phosphorylation”.
